Measured values reported in ChEMBL document CHEMBL5523677, “Discovery of ASP6918, a KRAS G12C inhibitor: Synthesis and structure-activity relationships of 1-{2,7-diazaspiro[3.5]non-2-yl}prop-2-en-1-one derivatives as covalent inhibitors with good potency and oral activity for the treatment of solid tumors” (Bioorg Med Chem, 2024).

Columns and labels:
[1] = Inhibition of biotinylated GDP-bound Avi-tagged KRAS G12C mutant (1 to 185 residues)/SOS/GST-tagged c-Raf (unknown origin) complex formation incubated for 1 hr in presence of GTP by fluorescence based analysis; set-up: species or system Homo sapiens
[2] = Inhibition of ERK phosphorylation in KRAS-G12C mutant positive human NCI-H1373 cells incubated for 2 hrs by ELISA; format: cell-based; conditions: Homo sapiens, NCI-H1373, 2 h
[3] = Lipophilicity, LogD of compound in 1-Octanol/PBS at pH 7.4 by LC-MS analysis; format: physicochemical
[4] = Inhibition of ERK phosphorylation in human A-375 cells harboring wild type KRAS and mutant BRAF incubated for 2 hrs by ELISA; format: cell-based; conditions: A-375, 2 h
[5] = Aqueous solubility of compound in Japanese Pharmacopoeia 2nd fluid at pH 6.8 at 130 umol/L incubated for 20 hrs by liquid chromatography; format: physicochemical; conditions: dose 130 µmol/L
[6] = Metabolic stability in mouse liver microsomes assessed as intrinsic clearance at 0.1 to 0.2 micromol/L incubated for 30 mins in presence of NADPH-generating system by LC-MS/MS analysis; format: ADME, Microsome; conditions: dose 0.1-0.2 µmol/L, read-out: CLH
NCI-H1373 = assay: Cytotoxicity against KRAS G12C mutant positive human NCI-H1373 cells assessed as inhibition of cell growth incubated for 6 days by Celltiter-Glo 2.0 assay; format: functional, cell-based; conditions: Homo sapiens, NCI-H1373, 144 h

IC50 [1] | IC50 [2] | logD [3] | IC50 [4] | solubility at 20 h, 130 µM [5] | CLint scaled [6] | SMILES | IC50 (NCI-H1373)
56 nM | 35 nM |  |  |  |  | C=CC(=O)N1CC2(CCN(c3nc(OC4CCN(CC)CC4)nc4c(OC5CC5)c(-c5c(C)ccc6[nH]ncc56)c(Cl)cc34)CC2)C1 | 
56 nM | 120 nM |  |  |  |  | C#Cc1cc2c(N3CCC4(CC3)CN(C(=O)C=C)C4)nc(OC3CCN(CC)CC3)nc2c(F)c1-c1c(C)ccc2[nH]ncc12 | 
280 nM |  |  |  |  |  | C=CC(=O)N1CC2(CCN(c3nc(OC4CCN(CC)CC4)nc4c(C#N)c(-c5c(C)ccc6[nH]ncc56)c(Cl)cc34)CC2)C1 | 
 | 5 nM | > 4.3 | > 10000 nM | > 100 µM | 342 mL/min/kg | C=CC(=O)N1CC2(CCN(c3nc(OC4CCN(C)CC4)nc4c(OC5CCC5)c(-c5c(C)ccc6[nH]ncc56)c(C=C)cc34)CC2)C1 | 12 nM
 | 39 nM | 3.2 | > 10000 nM |  |  | C=CC(=O)N1CC2(CCN(c3nc(OC4CCN(C)CC4)nc4c(OC)c(-c5c(C)ccc6[nH]ncc56)c(C=C)cc34)CC2)C1 | 52 nM
41 nM | 37 nM |  |  |  |  | C=CC(=O)N1CC2(CCN(c3nc(OC4CCN(CC)CC4)nc4c(F)c(-c5c(C)ccc6[nH]ncc56)c(C=C)cc34)CC2)C1 | 
250 nM |  |  |  |  |  | C=CC(=O)N1CC2(CCN(c3nc(OC4CCN(CC)CC4)nc4cc(-c5c(C)ccc6[nH]ncc56)c(Cl)cc34)CC2)C1 | 
59 nM | 160 nM |  |  |  |  | C=CC(=O)N1CC2(CCN(c3nc(OC4CCN(CC)CC4)nc4c(F)c(-c5c(C)ccc6[nH]ncc56)c(CC)cc34)CC2)C1 | 
